Data taken from patent publication US20080194678A1, “Process To Obtain Synthetic And Semi-Synthetic Lignan Derivatives, Their Antiparasitic Activities And Corresponding Pharmaceutical Formulations, Including The Therapeutic Method Using Said Lignan For The Treatment Of Parasitosis” (Fundacao de Amparo a Pesquissa do Estado de Aao Pa, priority 2005, published 2008).

Experiments:
S. mansoni [1] = settings: vertebrate host; cited from earlier work
Schistosoma = settings: patients; cited from earlier work
S. mansoni [2] = test: Couples of S. mansoni recovered from infected BALB/c mice by perfusion after treatment; type: in vivo, Schistosoma mansoni; settings: 10 mg/kg of weight, after 40 days of infection with S. mansoni
Protocol: FIG. 8—graph with the number of recovered worms vs. effect of the drug. Couples of S. mansoni recovered from BALB/c mice by perfusion of the door-kidney system. Five mice, after 40 days of infection (approximately 200 cercariae), were submitted to test with a single dose of the drug dinitrocubebine (10 mg/kg of weight). In the group untreated (negative control treated only with a 5% dimethyl sulfoxide solution in water), 40 couples/animal were recovered. In the treated group, only 5 couples were recovered. […] FIG. 9—graph with the number of recovered worms vs. effect of the drug. Couples of S. mansoni recovered from BALB/c mice by perfusion of the door-kidney system. Five mice, after 40 days of infection (approximately 200 cercariae), were submitted to test with a single dose of the drug methylcubebin (10 mg/kg of weight). In the untreated group (negative control treated only with a 5% dimethyl sulfoxide solution in water), 40 couples/animal were recovered. In the treated group, only five couples were recovered. […] In in vivo tests, the drugs (−)—O-methylcubebin (6) and (−)-6,6′-dinitronokinin (8) presented results similar to the obtained with praziquantel, in the same concentration (10 mg/kg of weight), i.e. reduction of approximately 90% of the viable worms, after 40 days of infection with S. mansoni. […] Such a result was extremely important and promising, since the drug was given to the parasites when they were still maturing and had not yet reached the evolutive form of adult worms. […] Thus, the developed medicine may be used not only as a healing drug, but also as a prophylactic drug in the combat against schistosomosis. Another advantage relates to the low toxicity of these substances for use in antiparasitic therapeutics, since many of these derivatives have hepatic-protecting and antioxidant action. Thus, the use of these lignans certainly offers higher safety for therapeutic use than praziquantel. So, the use of these substances in medicines for longer treatments is safer than with praziquantel and they have nearly no significant side effects. Finally, this group of substances is obtained from natural sources, which is not applicable to praziquantel.

## O=C(C1CCCCC1)N1CC(=O)N2CCc3ccccc3C2C1 (stereo not drawn) [praziquantel]
S. mansoni [1]
  evolutive form of S. mansoni acted on: acts only on the evolutive form of adult worms
Schistosoma
  side effects: abdominal pain, diarrhea, fever and urticaria-shaped reactions
S. mansoni [2]
  reduction of the viable worms: approximately 90%
